Source: US5277897A, “In vivo enhancement of cellular accumulation of lipophilic cationic organometallic compounds by reduction of intramembrane potential” (Brigham and Women's Hospital, priority 1992, dated 1994)
pEC50: −log10 of the molar value.

What was measured:
[1] = tested on: cells and mitochondria; conditions: typical loading activities; cited from earlier work
[2] = tested on: cultured chick heart cells; assay: Effect of 8-anilino-1-naphthalene sulfonic acid on net uptake of Tc-MIBI in cultured chick heart cells (FIG. 9); assay type: cell-based; conditions: Gallus gallus, 0.5 h; 8-ANS 10^-4 M, within 30 minutes; read-out: net uptake of Tc-MIBI enhanced over the control
Procedure: FIG. 9. Effect of 8-anilino-1-naphthalene sulfonic acid on net uptake of Tc-M1B1 in cultured chick heart cells. Preparations were incubated for the times indicated in Tc-MIBI loading buffer in the absence (.quadrature.) and presence of 8-ANS ( , 10^-7 M; , 10^-4 M). Each point represents the mean ±SEM of 3-4 determinations.
(§1) Monolayers of spontaneously contractile chick ventricular myocardial cells were obtained from disaggregated 10-day old chick embryo hearts by a slight modification of previously published methods (Horres, C. R., et al., In Pinson, A. (ed.), The Heart Cell in Culture, Boca Raton, CRC Press, pp. 77-108 (1987)). Hearts were trimmed of connective tissue and atria, finely minced and serially exposed to 0.024% (w/v) trypsin in Ca^2+ - and Mg^2+ - free Earle's salt solution for 7 minutes at 37° C. Gentle trituration and agitation on an orbital shaker bath aided disaggregation. Cells released from the first exposure were discarded and cells aspirated from the next four exposures were then added to an equal volume of trypsin deactivating solution consisting of ice-cold culture medium. Cells were centrifuged at 400 g for 10 minutes, resuspended and combined in culture medium, counted with a hemocytometer and diluted to yield a suspension of 5×10^5 cells/ml. […]

[3] = tested on: cultured chick heart cells; assay: Effect of TPB on net accumulation of Tc-MIBI in cultured chick heart cells (FIG. 1); assay type: cell-based; conditions: TPB 10^-5 M; P <0.001
Procedure: FIG. 1. Effect of TPB on net accumulation of Tc-MIBI in cultured chick heart cells. Preparations were incubated for the times indicated in Modified Earle's Basic Salt Solution (MEBSS) control buffer containing tracer Tc-MIBI alone (.quadrature.) and with various concentrations of tetraphenylborate: ( ) 10^-9 M; ( ) 5×10^-7 M; (·) 10^-5 M. Results are expressed as fmol cellular Tc-MIBI/mg protein per nM extracellular Tc MIBI. Each point represents the mean ±SEM of 3 determinations.
Control buffer was a modified Earle's balanced salt solution (MEBSS) with the following composition (mN) Na^30, 145; K^+, 5.4; Ca^2, 1.2; Mg^2+, 0.8; Cl, 152; H2 PO4, 0.8; SO4^2-, 0.8; dextrose, 5.6; HEPES, 4.0; and bovine calf serum, 1% (v/v); pH 78.4±0.05; 37° C. […]
Monolayers of spontaneously contractile chick ventricular myocardial cells were obtained from disaggregated 10-day old chick embryo hearts by a slight modification of previously published methods (Horres, C. R., et al., In Pinson, A. (ed.), The Heart Cell in Culture, Boca Raton, CRC Press, pp. 77-108 (1987)). […] Cells were centrifuged at 400 g for 10 minutes, resuspended and combined in culture medium, counted with a hemocytometer and diluted to yield a suspension of 5×10^5 cells/ml. […]

[4] = tested on: cultured chick heart cells; assay: Concentration-effect curve for TPB enhancement of 2-minute uptake of Tc-MIBI (FIG. 2); assay type: cell-based
Procedure: FIG. 2. Concentration-effect curve for TPB enhancement of 2-minute uptake of Tc-MIBI. Preparations were pre-incubated for 1 minute in control MEBSS buffer containing TPB at the indicated concentrations prior to determination of tracer Tc-MIBI uptake in the continued presence of TPB. Each point represents the mean ±SEM of 3 determinations.
as §1

[5] = tested on: cultured chick heart cells; assay: Influence of TPB and CCCP on (membrane potential-independent) accumulation of Tc-MIBI (FIG. 4); assay type: cell-based; conditions: TPB; CCCP
Procedure: FIG. 4. […] Preparations were incubated for the times indicated in 5.4 mM Ko control loading buffer containing tracer Tc-MIBI and TPB together (Δ) or in loading buffer containing Tc-MIBI alone (.quadrature.). For the latter incubation, TPB was added to the loading buffer at the arrow and cell content of Tc-MIBI subsequently determined (o). Under each condition, CCCP was added to the loading buffers as indicated by the arrows and cell content of Tc-MIBI determined ( , , ·). Each point is the mean ±SEM of 3 determinations.
Monolayers of spontaneously contractile chick ventricular myocardial cells were obtained from disaggregated 10-day old chick embryo hearts by a slight modification of previously published methods (Horres, C. R., et al., In Pinson, A. (ed.), The Heart Cell in Culture, Boca Raton, CRC Press, pp. 77-108 (1987)). Hearts were trimmed of connective tissue and atria, finely minced and serially exposed to 0.024% (w/v) trypsin in Ca^2+ - and Mg^2+ - free Earle's salt solution for 7 minutes at 37° C. Gentle trituration and agitation on an orbital shaker bath aided disaggregation. Cells released from the first exposure were discarded and cells aspirated from the next four exposures were then added to an equal volume of trypsin deactivating solution consisting of ice-cold culture medium. Cells were centrifuged at 400 g for 10 minutes, resuspended and combined in culture medium, counted with a hemocytometer and diluted to yield a suspension of 5×10^5 cells/ml. 12 ml of suspension were incubated in 100 mm plastic culture dishes containing 7 coverslips (25 mm diameter) placed on the bottom of each dish to serve as substrate for cell growth. Cells were maintained in a humidified atmosphere of 5% CO2 /95% air for 3-4 days yielding a confluent layer of spontaneously contractile myocytes on each coverslip.
Radioactive uptake methods have been described in detail (Piwnica-Worms, D., et al, Circ. (in press). Briefly, coverslips with confluent cells were removed from culture media and pre-equilibrated for 40-60 seconds in MEBSS buffer. Uptake and retention experiments were initiated by immersion of coverslips in 60 mm glass Pyrex dishes containing loading solution consisting of buffer with 0.1-0.6 nM [^99m Tc-MIBI] (0.01-0.4 Ci/nmole; 25-100 uCi/ml). Preparations were removed at various times and rinsed three times in 25 ml volumes of ice-cold (2° C.) isotope-free buffer for 8 seconds each to clear extracellular spaces. Preparations and aliquots of the loading buffer and stock solutions were counted in a well-type sodium iodide gamma counter after which cell protein on each coverslip was extracted in 1% sodium dodecylsulfate with 10 mM sodium borate and assayed by the method of Lowry (Lowry, O. H., et al., J. Biol. Chem. 193:265-275 (1951)). Tc-MIBI binding to glass coverslips without cells was used as an estimate of non-specific adhesion to the substrate ([…] obtained with cellular preparations); this value was subtracted from total uptake determinations to derive the cell-associated counts. Use of generator equilibrium equations (Lamson, M. L., et al., i J. Nucl. Med. 16:639-641 (1975)) allowed calculation of absolute moles of Tc-MIBI in solutions and preparations. Results were therefore expressed as fmol cellular Tc-MIBI/mg protein per nM extracellular Tc-MIBI concentration. […]

[6] = Effect of tetraphenylborate on the biodistribution of Tc-MIBI in rats (Table 2); assay type: in vivo; conditions: TPB vs no TPB
Procedure: The results are expressed as percent injected dose per gram of tissue. […] For this series of experiments, 50 microliters of dimethylsulfoxide lacking or containing 7.2 mM TPB were injected directly into the jugular vein of anesthetized rats immediately prior to the injection of Tc-MIBI (150 microliters; 100 microCuries per 200 microliters).
After 15 minutes, the animal was sacrificed by thoracotomy, organs extracted and placed in test tubes and counted for radioactivity in a standard well-type gamma counter. Tissue wet weights were obtained by subtracting fare weights from total weight of test tubes plus tissue.
Results are expressed as mean ±SEM of three determinations each.

[7] = tested on: cultured heart cells; assay: TPB toxicity at high concentration in cultured heart cells; assay type: cell-based, chick; conditions: TPB 10^-4 M
[8] = tested on: perfused rabbit heart; conditions: ouabain 1.5×10^-6 M; cited from earlier work

In the case of `c1ccc([P+](c2ccccc2)(c2ccccc2)c2ccccc2)cc1` [TPP^+, tetraphenylphosphonium], the “toxic effects on mitochondrial function” value [1] is given as “toxic effects on mitochondrial function”.

`O=S(=O)(O)c1cccc2cccc(Nc3ccccc3)c12` [8-anilino-1-naphthalene sulfonic acid] gave an activation at 100 µM [2] of 25%.

With `c1ccc([B-](c2ccccc2)(c2ccccc2)c2ccccc2)cc1` [TPB, tetraphenylborate] the “peak accumulation of Tc-MIBI, greater than control” value [3] was 4 fold, the “myocellular uptake of Tc-MIBI increased in a concentration-dependent manner up to” value [4] was “up to 3×10^-5 M” and the pEC50 ([4]; Gallus gallus, 1 minute pre-incubation with TPB, read-out: half-maximal concentration for TPB enhancement of myocellular uptake of Tc-MIBI) was 5.52. The “residual CCCP-insensitive Tc-MIBI content, of the TPB-enhanced Tc-MIBI content” value [5] was 13%, the “Tc-MIBI accumulation in liver, kidney, lung and blood” value [6] was “significant increase in Tc-MIBI accumulation within the tissues” and the “increase in tissue retention of Tc-MIBI, all tissues” value [6] was 50%. The “enhancement of Tc-MIBI accumulation / cellular toxicity” value [7] was “relatively less enhancement of Tc-MIBI accumulation compared to moderate TPB concentrations suggesting cellular toxicity”.

In the case of `CC1OC(OC2CC(O)C3(CO)C4C(O)CC5(C)C(C6=CC(=O)OC6)CCC5(O)C4CCC3(O)C2)C(O)C(O)C1O` (stereo not shown) [oaubain], the “net tissue extraction of Tc-MIBI” value [8] is listed as “alter net tissue extraction of Tc-MIBI”.
